Data taken from the supplement of paper PMC10307832.

Tests used:
Test in all cases: relative viability (nuclei count vs DMSO), 5 days (fraction); higher = more cells survive
[1] = compound: CC1=CC=C(C=C1)C(=O)CN2C3=C(CCCC3)SC2=N [Pifithrin_alpha] + Nc1nc2[nH]cc(CCc3ccc(C(=O)N[C@@H](CCC(=O)O)C(=O)O)cc3)c2c(=O)[nH]1 [Pemetrexed] (partner 0.2 µM)
Procedure, shortened: (§1)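 One day after seeding in 1536-well plates, lung cancer cell lines were dosed by pin tool. Dosing was either single-drug or a fixed anchor-drug dose plus five library-drug doses (not always all listed) in √10 steps. After 5 days, nuclei were stained in one fix-and-stain step and counted on 4× images, and relative viability is the nuclei count of treated wells over that of vehicle wells, given as the median of duplicate plates.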

[2] = compound: CC1=CC=C(C=C1)C(=O)CN2C3=C(CCCC3)SC2=N [Pifithrin_alpha] + CC(=O)Nc1cccc(-n2c(=O)n(C3CC3)c(=O)c3c(Nc4ccc(I)cc4F)n(C)c(=O)c(C)c32)c1 [Trametinib] (partner 0.02 µM)
Procedure, shortened: as §1

[3] = compound: CNC(=O)c1ccccc1Sc1ccc2c(/C=C/c3ccccn3)n[nH]c2c1 [Axitinib] + CCNC(=O)c1noc(-c2cc(C(C)C)c(O)cc2O)c1-c1ccc(CN2CCOCC2)cc1 [Luminespib] (partner 0.01 µM)
Procedure, shortened: as §1

[4] = compound: CNC(=O)c1ccccc1Sc1ccc2c(/C=C/c3ccccn3)n[nH]c2c1 [Axitinib] + NC(=O)Nc1cc(-c2cccc(F)c2)sc1C(=O)N[C@H]1CCCNC1 [AZD7762] (partner 0.2 µM)
Procedure, shortened: as §1

Cell Line	relative viability ([1]; first compound 1 µM)	relative viability ([1]; first compound 3.162 µM)	relative viability ([1]; first compound 10 µM)	relative viability ([1]; first compound 31.62 µM)	relative viability ([1]; first compound 100 µM)	relative viability ([2]; first compound 1 µM)	relative viability ([2]; first compound 3.162 µM)	relative viability ([2]; first compound 10 µM)	relative viability ([2]; first compound 31.62 µM)	relative viability ([2]; first compound 100 µM)	relative viability ([3]; first compound 0.005 µM)	relative viability ([3]; first compound 0.01581 µM)	relative viability ([3]; first compound 0.05 µM)	relative viability ([3]; first compound 0.1581 µM)	relative viability ([3]; first compound 0.5 µM)	relative viability ([4]; first compound 0.005 µM)	relative viability ([4]; first compound 0.01581 µM)	relative viability ([4]; first compound 0.05 µM)	relative viability ([4]; first compound 0.1581 µM)	relative viability ([4]; first compound 0.5 µM)
SK-MES-1	0.84	0.845	0.863	0.494	0.623	0.593	0.518	0.462	0.36	0.403	0.774	0.781	0.746	0.766	0.825	–	–	–	–	–
NCI-H1648	0.805	0.49	0.924	0.655	0.671	0.487	0.332	0.453	0.48	0.422	–	–	–	–	–	0.725	0.57	0.666	0.733	0.682
PC-3 [JPC-3]	–	1.08	–	0.769	1.04	–	0.648	–	0.614	0.487	0.663	0.653	0.712	0.739	0.779	0.835	–	0.933	0.765	0.781
NCI-H1666	0.876	0.784	0.767	0.617	0.714	0.8	0.737	0.791	0.706	0.494	0.974	0.975	1.01	1.03	0.957	0.836	0.816	0.879	0.865	0.84
HCC-78	–	0.937	0.941	0.901	0.944	–	0.774	0.71	0.541	0.598	–	–	–	–	–	0.787	0.58	0.857	0.708	0.498
HCC-366	0.158	0.154	0.139	–	0.133	0.249	0.248	0.238	–	0.187	–	–	–	–	–	0.307	0.206	0.377	0.337	0.405
NCI-H520	0.721	0.741	0.727	0.461	0.699	0.777	0.652	0.785	0.535	0.741	0.228	0.239	0.23	0.222	0.284	–	–	–	–	–
NCI-H1355	0.977	0.972	0.764	0.686	0.677	0.39	0.362	0.298	0.31	0.282	0.822	0.73	0.748	0.747	0.659	0.799	0.833	0.845	0.769	0.735
SW 1573	–	1.03	0.964	0.593	0.808	–	0.619	0.567	0.341	0.31	0.325	0.253	0.424	0.586	0.13	–	–	–	–	–
COR-L 105	1.13	1	0.951	0.926	1.03	0.259	0.424	0.432	0.421	0.454	0.628	0.922	0.669	0.64	0.81	–	–	–	–	–
COR-L23	0.19	0.201	0.196	–	0.181	0.517	0.709	0.638	–	0.539	0.667	0.614	0.744	0.631	0.749	–	–	–	–	–
NCI-H322M	0.635	0.599	0.605	0.578	0.511	0.436	0.307	0.514	0.509	0.539	1.06	0.845	0.833	0.796	1.07	0.564	0.525	0.579	0.548	0.612
NCI-H2347	0.406	0.416	0.441	0.485	0.447	0.301	0.335	0.24	0.293	0.221	0.299	0.432	0.948	0.323	0.505	0.828	0.763	0.792	0.723	0.873
RERF-LC-KJ	0.437	0.445	0.507	0.452	0.396	0.861	0.774	0.693	0.747	0.586	1.23	1.2	1.17	1.21	1.42	1	0.916	1.21	0.977	1.01
NCI-H2228	0.406	0.416	0.335	0.252	0.298	0.611	0.482	0.499	0.384	0.436	0.142	0.118	0.147	0.174	0.138	–	–	–	–	–
NCI-H358	0.17	0.192	0.158	0.149	0.145	0.138	0.124	0.129	0.12	0.121	0.478	0.364	0.436	0.338	0.325	0.529	0.509	0.626	0.512	0.635
NCI-H2342	0.628	0.741	0.729	0.855	0.782	0.856	0.734	0.811	0.772	0.843	0.896	0.763	0.59	0.756	0.726	0.554	0.437	0.688	0.513	0.429
A-427	0.827	1	0.87	0.759	0.905	0.682	0.727	0.688	0.6	0.552	0.998	1.03	1.03	0.926	0.919	0.805	0.77	0.807	0.718	0.887
NCI-H2126	0.448	0.656	0.625	0.56	0.643	0.456	0.503	0.487	0.445	0.452	0.82	0.921	0.963	0.876	0.912	0.936	0.997	0.996	0.97	1.01
NCI-H647	0.166	0.164	0.197	0.156	0.162	0.391	0.335	0.332	0.344	0.496	0.292	0.167	0.168	0.227	0.285	0.449	0.32	0.583	0.36	0.539

Cell Line	relative viability ([1]; first compound 1 µM)	relative viability ([1]; first compound 3.162 µM)	relative viability ([1]; first compound 10 µM)	relative viability ([1]; first compound 31.62 µM)	relative viability ([1]; first compound 100 µM)	relative viability ([2]; first compound 1 µM)	relative viability ([2]; first compound 3.162 µM)	relative viability ([2]; first compound 10 µM)	relative viability ([2]; first compound 31.62 µM)	relative viability ([2]; first compound 100 µM)	relative viability ([3]; first compound 0.005 µM)	relative viability ([3]; first compound 0.01581 µM)	relative viability ([3]; first compound 0.05 µM)	relative viability ([3]; first compound 0.1581 µM)	relative viability ([3]; first compound 0.5 µM)	relative viability ([4]; first compound 0.005 µM)	relative viability ([4]; first compound 0.01581 µM)	relative viability ([4]; first compound 0.05 µM)	relative viability ([4]; first compound 0.1581 µM)	relative viability ([4]; first compound 0.5 µM)
ChaGo-K-1	0.251	0.252	0.27	0.263	0.249	0.889	0.936	0.889	0.589	0.862	0.591	0.703	0.44	0.495	0.533	0.912	0.862	0.908	0.868	0.886
UMC-11	0.866	0.869	0.824	0.723	1.08	0.73	0.715	0.719	0.657	0.87	1.01	1.03	1.07	1.04	1.14	–	–	–	–	–
LOU-NH91	0.398	0.362	0.307	0.332	0.359	0.746	0.72	0.731	0.612	0.568	0.325	0.377	0.379	0.349	0.331	0.806	0.723	0.814	0.761	0.78
HCC-44	0.56	0.584	0.667	0.519	0.574	0.945	0.846	0.727	0.786	0.747	1.07	1.07	0.484	1.04	1.35	1.07	1.04	1.01	0.992	1.03
HCC-15	0.225	0.206	0.207	0.206	0.209	0.373	0.33	0.348	0.315	0.256	0.306	0.325	0.307	0.301	0.338	1.36	1.13	1.35	1.14	1.18
NCI-H1975	0.285	0.277	0.27	0.212	0.228	0.251	0.29	0.232	0.275	0.252	0.244	0.337	0.192	0.198	0.257	0.743	0.733	0.698	0.715	0.816
NCI-H1651	0.211	0.632	0.553	0.539	0.666	0.833	0.821	0.863	0.851	0.958	0.941	0.965	1.03	0.745	1	0.466	0.416	0.481	0.467	0.533
NCI-H661	0.937	0.922	0.962	0.834	0.888	0.561	0.603	0.555	0.462	0.503	0.901	0.924	0.9	0.998	0.952	–	–	–	–	–
NCI-H23	0.679	0.609	0.734	0.479	0.547	0.288	0.314	0.447	0.353	0.358	0.21	–	0.233	0.231	0.219	0.328	0.216	0.23	0.241	0.288
PC-14	0.143	0.121	0.133	0.0962	0.0885	0.731	0.654	0.547	0.319	0.383	0.295	–	0.171	0.141	0.164	0.306	–	0.346	0.382	0.413
NCI-H1563	0.54	0.813	0.817	0.769	0.749	–	–	–	–	–	0.401	0.594	0.487	0.549	0.446	–	–	–	–	–
NCI-H1703	–	–	–	–	–	–	–	–	–	–	–	–	–	–	–	0.135	0.11	0.118	0.121	0.125
NCI-H2009	0.985	1.01	0.949	0.702	0.944	0.26	0.265	0.253	0.218	0.234	1.11	1.12	1.02	1.07	1.16	–	–	–	–	–
NCI-H727	–	–	–	–	–	0.374	0.403	0.388	0.409	0.361	0.325	0.276	0.345	0.346	0.278	0.488	0.554	0.629	0.738	0.584
NCI-H2023	0.28	0.254	0.215	0.157	0.153	0.512	0.386	0.324	0.213	0.214	0.76	0.942	0.752	0.745	0.97	–	–	–	–	–
NCI-H1650	0.358	0.366	0.341	0.331	0.392	0.563	0.523	0.451	0.375	0.39	0.195	0.194	0.192	0.203	0.236	–	–	–	–	–
NCI-H1623	–	–	–	–	–	–	–	–	–	–	0.519	0.602	0.444	0.538	0.481	–	–	–	–	–
SK-LU-1	1.03	1.03	1.07	0.752	1.14	0.561	0.494	0.43	0.42	0.48	0.224	0.21	0.188	0.201	0.238	–	–	–	–	–
ABC-1	–	–	–	–	–	–	–	–	–	–	0.777	0.727	0.444	–	0.552	–	0.725	0.896	0.822	0.461
